We go through one molecule from BindingDB's records for doi:10.1111/j.1476-5381.1996.tb15304.x (Smithkline Beecham Pharmaceuticals, 1996).

Among the targets are D(2) dopamine receptor (Homo sapiens, UniProt P14416); D(1A) dopamine receptor (Homo sapiens, UniProt P21728); Histamine H2 receptor (Mus musculus, UniProt P97292).
Experiment [1] addresses 5-hydroxytryptamine receptor 7 (Rattus norvegicus, UniProt P32305).
Experiment [2] addresses 5-hydroxytryptamine receptor 2A (Rattus norvegicus, UniProt P14842).
The target in experiment [3] is 5-hydroxytryptamine receptor 1B (Homo sapiens, UniProt P28222).
Experiment [4] has as its target 5-hydroxytryptamine receptor 1D (Homo sapiens, UniProt P28221).
In experiment [5] the target is 5-hydroxytryptamine receptor 7 (Homo sapiens, UniProt P34969).
The target in experiment [6] is 5-hydroxytryptamine receptor 1E (Homo sapiens, UniProt P28566).
Another experiment addresses T1, D(4) dopamine receptor (Homo sapiens, UniProt P21917).
T1 sequence (P21917 whole entry): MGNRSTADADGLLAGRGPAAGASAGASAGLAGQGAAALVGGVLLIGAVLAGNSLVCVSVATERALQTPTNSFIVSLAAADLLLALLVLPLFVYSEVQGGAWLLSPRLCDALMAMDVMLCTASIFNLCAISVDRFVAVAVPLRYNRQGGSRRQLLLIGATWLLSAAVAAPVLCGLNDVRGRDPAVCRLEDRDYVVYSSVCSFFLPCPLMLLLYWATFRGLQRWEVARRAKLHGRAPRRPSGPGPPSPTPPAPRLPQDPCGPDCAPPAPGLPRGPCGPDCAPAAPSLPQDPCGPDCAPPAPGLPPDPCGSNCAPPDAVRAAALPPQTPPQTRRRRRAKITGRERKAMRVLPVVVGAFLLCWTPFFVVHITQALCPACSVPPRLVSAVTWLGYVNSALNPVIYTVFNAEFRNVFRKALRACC

Experiment [7] deals with T2, 5-hydroxytryptamine receptor 2C (Rattus norvegicus, UniProt P08909).
T2 sequence (P08909 whole entry): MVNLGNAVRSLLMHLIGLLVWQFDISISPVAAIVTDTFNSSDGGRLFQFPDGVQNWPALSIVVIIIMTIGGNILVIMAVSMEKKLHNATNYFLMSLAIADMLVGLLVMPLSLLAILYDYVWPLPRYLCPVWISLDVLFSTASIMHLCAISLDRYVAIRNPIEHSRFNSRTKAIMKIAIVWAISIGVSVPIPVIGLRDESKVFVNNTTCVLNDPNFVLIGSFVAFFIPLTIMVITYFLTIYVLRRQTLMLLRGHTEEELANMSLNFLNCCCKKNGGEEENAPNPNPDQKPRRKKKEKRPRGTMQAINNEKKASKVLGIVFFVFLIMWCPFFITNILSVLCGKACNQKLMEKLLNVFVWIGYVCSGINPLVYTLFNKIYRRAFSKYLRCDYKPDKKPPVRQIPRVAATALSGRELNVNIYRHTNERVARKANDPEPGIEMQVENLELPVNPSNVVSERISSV

Experiment [8] addresses T3, 5-hydroxytryptamine receptor 1F (Homo sapiens, UniProt P30939).
T3 sequence (P30939 whole entry): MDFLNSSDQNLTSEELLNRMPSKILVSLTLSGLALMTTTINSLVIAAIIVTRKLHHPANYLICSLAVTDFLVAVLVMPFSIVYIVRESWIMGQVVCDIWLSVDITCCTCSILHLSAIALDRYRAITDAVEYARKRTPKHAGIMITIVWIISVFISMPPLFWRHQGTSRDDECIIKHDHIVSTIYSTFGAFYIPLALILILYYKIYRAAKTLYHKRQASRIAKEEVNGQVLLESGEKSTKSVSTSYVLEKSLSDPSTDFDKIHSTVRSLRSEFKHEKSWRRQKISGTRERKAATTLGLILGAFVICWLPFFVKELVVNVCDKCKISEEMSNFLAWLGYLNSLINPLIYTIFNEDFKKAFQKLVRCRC

Experiment [9] concerns the target T4, 5-hydroxytryptamine receptor 3A (Rattus norvegicus, UniProt P35563).
T4 sequence (P35563 whole entry): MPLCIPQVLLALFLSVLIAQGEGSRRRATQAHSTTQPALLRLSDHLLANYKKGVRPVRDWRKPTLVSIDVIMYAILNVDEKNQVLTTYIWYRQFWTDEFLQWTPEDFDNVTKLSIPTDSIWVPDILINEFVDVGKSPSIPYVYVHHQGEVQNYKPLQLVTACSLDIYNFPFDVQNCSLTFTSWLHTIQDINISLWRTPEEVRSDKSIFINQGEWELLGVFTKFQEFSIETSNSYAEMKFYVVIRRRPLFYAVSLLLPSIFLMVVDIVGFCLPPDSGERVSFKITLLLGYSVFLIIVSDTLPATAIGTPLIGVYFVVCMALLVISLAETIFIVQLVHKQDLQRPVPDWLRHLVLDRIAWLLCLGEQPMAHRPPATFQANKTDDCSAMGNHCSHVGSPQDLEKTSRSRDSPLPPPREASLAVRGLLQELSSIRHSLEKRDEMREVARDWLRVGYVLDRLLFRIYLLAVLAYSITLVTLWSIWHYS

Experiment [10] has as its target 5-hydroxytryptamine receptor 4 (Rattus norvegicus, UniProt Q62758).
For experiment [11], the target named is T5, Solute carrier family 22 member 1 (Rattus norvegicus, UniProt Q63089).
T5 sequence (Q63089 whole entry): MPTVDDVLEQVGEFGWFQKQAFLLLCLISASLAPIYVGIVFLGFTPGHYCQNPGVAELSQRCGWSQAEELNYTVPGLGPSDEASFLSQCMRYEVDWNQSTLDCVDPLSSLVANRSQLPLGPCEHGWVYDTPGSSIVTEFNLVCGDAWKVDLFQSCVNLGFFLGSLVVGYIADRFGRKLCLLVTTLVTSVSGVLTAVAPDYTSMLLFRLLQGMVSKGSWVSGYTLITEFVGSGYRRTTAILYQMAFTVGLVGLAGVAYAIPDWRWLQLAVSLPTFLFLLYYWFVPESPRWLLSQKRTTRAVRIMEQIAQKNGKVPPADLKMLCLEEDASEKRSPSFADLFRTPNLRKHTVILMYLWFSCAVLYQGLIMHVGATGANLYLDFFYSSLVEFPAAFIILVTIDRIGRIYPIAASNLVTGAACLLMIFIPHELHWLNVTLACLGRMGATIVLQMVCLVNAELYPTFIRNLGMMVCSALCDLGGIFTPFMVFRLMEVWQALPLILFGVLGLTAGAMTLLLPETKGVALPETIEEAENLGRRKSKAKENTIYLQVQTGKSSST

The target of experiment [12] is T6, Adrenergic alpha2 receptor (Mesocricetus auratus, UniProt Q60533).
T6 sequence (Q60533 whole entry): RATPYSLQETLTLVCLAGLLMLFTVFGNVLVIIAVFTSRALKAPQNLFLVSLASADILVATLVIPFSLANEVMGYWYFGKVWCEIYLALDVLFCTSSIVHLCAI

The target of experiment [13] is Beta-2 adrenergic receptor (Mus musculus, UniProt P18762).
Experiment [14] concerns the target Beta-1 adrenergic receptor (Homo sapiens, UniProt P08588).
The target in experiment [15] is T7, 5-hydroxytryptamine receptor 2C (Homo sapiens, UniProt P28335).
T7 sequence (P28335 whole entry): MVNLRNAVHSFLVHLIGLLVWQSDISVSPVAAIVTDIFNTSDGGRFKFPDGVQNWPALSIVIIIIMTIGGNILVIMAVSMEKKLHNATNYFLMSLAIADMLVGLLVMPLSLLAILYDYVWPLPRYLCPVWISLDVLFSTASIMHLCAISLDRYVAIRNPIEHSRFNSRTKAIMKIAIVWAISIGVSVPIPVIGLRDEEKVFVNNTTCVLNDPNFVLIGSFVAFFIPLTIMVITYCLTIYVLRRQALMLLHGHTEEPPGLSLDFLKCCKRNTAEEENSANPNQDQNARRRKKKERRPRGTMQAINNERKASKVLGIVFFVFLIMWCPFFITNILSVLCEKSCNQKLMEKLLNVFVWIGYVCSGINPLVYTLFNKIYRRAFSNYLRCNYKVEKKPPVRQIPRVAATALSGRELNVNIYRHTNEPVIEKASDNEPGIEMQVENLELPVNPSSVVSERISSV

Some results are limits rather than exact numbers.

Sequence of 5-hydroxytryptamine receptor 1B (P28222 whole entry): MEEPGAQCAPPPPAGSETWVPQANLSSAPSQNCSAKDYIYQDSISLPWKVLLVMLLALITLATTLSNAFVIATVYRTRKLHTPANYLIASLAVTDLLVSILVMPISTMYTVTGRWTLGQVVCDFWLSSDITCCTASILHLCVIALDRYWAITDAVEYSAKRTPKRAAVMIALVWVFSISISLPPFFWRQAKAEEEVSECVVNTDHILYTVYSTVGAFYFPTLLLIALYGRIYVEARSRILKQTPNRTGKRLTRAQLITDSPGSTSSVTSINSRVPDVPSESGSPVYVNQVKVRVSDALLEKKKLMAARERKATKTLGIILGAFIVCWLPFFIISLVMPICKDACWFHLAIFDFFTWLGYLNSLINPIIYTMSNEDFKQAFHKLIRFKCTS
Sequence of 5-hydroxytryptamine receptor 2A (P14842 whole entry): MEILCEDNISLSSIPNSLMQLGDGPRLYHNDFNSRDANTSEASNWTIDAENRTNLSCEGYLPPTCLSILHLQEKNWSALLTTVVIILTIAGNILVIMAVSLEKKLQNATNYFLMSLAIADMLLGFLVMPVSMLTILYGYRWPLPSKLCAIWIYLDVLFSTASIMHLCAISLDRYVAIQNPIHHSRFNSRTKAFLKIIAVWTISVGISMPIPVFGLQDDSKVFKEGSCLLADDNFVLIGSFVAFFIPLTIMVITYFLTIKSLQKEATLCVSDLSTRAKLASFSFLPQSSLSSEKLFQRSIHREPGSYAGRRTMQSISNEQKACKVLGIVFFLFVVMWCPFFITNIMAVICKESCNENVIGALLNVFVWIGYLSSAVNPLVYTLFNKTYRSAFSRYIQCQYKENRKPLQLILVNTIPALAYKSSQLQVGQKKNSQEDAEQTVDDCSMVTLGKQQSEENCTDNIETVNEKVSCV
Sequence of D(1A) dopamine receptor (P21728 whole entry): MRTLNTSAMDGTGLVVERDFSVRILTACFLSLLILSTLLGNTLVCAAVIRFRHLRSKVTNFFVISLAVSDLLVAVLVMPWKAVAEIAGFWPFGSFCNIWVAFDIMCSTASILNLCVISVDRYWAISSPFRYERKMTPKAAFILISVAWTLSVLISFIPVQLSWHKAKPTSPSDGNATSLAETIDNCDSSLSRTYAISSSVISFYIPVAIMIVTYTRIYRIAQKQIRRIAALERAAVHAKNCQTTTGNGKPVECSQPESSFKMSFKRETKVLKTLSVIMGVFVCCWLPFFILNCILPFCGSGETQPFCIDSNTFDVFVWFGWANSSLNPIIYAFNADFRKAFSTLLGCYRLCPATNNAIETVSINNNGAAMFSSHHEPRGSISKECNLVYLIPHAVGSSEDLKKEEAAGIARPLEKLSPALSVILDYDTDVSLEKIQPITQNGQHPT
Sequence of 5-hydroxytryptamine receptor 1D (P28221 whole entry): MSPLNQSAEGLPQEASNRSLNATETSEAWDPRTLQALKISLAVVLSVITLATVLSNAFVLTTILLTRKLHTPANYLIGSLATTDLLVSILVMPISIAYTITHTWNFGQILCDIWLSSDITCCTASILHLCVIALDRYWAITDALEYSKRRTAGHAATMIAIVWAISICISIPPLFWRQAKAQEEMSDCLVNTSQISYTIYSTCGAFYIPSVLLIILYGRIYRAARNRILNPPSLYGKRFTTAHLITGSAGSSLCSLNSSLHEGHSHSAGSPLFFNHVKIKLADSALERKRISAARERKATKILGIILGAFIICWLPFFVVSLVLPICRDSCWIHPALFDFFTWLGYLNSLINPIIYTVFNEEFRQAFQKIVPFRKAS
Sequence of 5-hydroxytryptamine receptor 7 (Homo sapiens, UniProt P34969) (P34969 whole entry): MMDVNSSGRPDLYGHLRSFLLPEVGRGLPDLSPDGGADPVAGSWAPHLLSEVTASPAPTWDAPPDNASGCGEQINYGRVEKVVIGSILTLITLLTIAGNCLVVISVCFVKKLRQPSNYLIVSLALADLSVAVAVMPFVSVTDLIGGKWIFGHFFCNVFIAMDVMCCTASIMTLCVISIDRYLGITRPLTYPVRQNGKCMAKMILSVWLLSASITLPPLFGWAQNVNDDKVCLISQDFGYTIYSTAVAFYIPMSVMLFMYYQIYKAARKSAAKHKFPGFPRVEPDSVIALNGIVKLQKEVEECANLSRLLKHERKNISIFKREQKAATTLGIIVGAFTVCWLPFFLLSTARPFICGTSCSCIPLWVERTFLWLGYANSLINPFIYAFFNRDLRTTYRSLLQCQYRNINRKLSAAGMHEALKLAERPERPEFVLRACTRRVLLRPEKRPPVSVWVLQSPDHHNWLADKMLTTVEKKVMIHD
Sequence of D(2) dopamine receptor (P14416 whole entry): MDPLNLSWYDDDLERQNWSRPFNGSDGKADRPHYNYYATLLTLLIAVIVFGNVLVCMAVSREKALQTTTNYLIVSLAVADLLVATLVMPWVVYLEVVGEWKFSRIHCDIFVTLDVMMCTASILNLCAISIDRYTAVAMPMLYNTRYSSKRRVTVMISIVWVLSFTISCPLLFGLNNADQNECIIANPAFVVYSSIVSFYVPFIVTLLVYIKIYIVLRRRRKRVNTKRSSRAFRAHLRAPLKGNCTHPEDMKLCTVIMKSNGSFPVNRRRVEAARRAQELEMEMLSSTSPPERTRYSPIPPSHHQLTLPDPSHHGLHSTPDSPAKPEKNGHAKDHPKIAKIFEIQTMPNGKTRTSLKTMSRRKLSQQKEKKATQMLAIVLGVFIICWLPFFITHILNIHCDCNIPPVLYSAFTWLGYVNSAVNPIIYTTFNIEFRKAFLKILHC
Sequence of 5-hydroxytryptamine receptor 7 (Rattus norvegicus, UniProt P32305) (P32305 whole entry): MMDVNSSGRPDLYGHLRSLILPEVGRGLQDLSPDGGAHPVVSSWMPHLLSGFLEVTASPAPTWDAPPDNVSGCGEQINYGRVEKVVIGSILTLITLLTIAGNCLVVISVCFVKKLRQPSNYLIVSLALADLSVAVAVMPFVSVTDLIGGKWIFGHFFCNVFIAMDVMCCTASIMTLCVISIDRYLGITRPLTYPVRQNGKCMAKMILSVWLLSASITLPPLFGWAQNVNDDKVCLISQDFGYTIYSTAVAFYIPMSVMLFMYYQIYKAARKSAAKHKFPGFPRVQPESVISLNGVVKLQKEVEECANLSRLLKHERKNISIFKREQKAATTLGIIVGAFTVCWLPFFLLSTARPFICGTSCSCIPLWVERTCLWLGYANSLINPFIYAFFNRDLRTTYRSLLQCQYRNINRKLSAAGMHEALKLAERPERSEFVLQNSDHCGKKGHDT
Sequence of Beta-1 adrenergic receptor (P08588 whole entry): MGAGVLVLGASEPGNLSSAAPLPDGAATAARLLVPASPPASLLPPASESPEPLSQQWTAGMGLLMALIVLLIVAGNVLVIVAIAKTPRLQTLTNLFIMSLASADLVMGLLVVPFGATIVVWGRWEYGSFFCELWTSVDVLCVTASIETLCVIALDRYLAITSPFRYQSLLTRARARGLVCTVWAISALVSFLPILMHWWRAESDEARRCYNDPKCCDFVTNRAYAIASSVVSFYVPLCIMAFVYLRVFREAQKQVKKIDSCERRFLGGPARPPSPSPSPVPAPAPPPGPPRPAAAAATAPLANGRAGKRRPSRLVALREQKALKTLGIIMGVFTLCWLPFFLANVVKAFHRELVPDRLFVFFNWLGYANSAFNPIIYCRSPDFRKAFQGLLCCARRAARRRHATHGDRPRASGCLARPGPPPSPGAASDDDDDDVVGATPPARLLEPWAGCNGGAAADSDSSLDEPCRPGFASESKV
Sequence of Histamine H2 receptor (P97292 whole entry): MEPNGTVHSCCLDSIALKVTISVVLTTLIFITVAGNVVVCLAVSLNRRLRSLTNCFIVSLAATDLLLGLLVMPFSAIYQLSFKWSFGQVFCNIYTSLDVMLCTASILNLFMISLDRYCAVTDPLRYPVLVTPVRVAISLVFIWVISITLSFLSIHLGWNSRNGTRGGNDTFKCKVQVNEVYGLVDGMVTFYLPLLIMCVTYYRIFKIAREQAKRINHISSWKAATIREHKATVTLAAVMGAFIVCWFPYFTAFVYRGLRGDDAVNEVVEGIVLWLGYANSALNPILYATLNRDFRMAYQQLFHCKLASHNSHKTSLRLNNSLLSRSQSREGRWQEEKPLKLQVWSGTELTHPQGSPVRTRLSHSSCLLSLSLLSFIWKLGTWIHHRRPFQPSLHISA
Sequence of 5-hydroxytryptamine receptor 4 (Q62758 whole entry): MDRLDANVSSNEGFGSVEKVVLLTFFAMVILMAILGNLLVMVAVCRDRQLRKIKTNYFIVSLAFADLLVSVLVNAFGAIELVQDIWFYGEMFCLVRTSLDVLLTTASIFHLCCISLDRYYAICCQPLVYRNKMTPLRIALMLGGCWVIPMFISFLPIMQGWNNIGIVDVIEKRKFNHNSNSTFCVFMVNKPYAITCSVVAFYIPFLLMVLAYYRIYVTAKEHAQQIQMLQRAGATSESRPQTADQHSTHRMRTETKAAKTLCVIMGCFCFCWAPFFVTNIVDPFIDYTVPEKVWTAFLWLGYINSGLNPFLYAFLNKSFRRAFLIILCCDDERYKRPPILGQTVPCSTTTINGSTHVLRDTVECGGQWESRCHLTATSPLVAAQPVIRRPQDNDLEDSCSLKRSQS
Sequence of Beta-2 adrenergic receptor (P18762 whole entry): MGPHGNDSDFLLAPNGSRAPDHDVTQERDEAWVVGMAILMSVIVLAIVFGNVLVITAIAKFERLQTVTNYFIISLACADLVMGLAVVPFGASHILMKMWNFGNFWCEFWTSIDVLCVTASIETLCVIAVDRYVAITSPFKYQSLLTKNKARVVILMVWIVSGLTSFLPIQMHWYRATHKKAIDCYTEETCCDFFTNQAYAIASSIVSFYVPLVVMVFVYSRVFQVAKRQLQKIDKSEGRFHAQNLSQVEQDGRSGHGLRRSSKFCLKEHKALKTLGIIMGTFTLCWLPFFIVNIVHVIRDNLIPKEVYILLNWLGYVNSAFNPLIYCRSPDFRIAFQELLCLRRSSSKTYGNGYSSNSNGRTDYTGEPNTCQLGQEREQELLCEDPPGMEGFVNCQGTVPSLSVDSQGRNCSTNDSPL

For `CC(N)Cc1c[nH]c2ccc(OCc3cccs3)cc12` (centres undefined) [NSC_5311036], the Ki (usually a dissociation constant, usually derived from enzyme kinetics or from competition with a known ligand) in experiment [1] was 1 µM; in experiment [2] it was 0.251 µM; in experiment [3], 0.126 µM; in experiment [4] it was 0.631 µM; in experiment [5] it was 3.16 µM; in [6], 3.16 µM. For the same molecule, the inhibition constant Ki is greater than 10 µM at D(4) dopamine receptor; greater than 10 µM on D(2) dopamine receptor; greater than 10 µM at D(1A) dopamine receptor; 0.126 µM in experiment [7]; 7.94 µM in [8]; 0.316 µM in experiment [9]. Further, the Ki (in experiment [10]; in experiment [11]; in experiment [12]; on Histamine H2 receptor; in experiment [13]; in experiment [14]) was greater than 10 µM throughout. In [15], this molecule came in with an inhibition constant Ki of 0.501 µM.
